Measurements as given in patent US20170198006A1, “PRMT5 INHIBITORS AND USES THEREOF” (Epizyme, Inc., priority 2014, published 2017).

target: T1, PRMT5/MEP50 (Homo sapiens, UniProt O14744); experiment: PRMT5 Biochemical Assay (PRMT5/MEP50 enzyme assay on histone H4 peptide substrate, 3H-SAM Flashplate); settings: not given
T1 construct: Flag-PRMT5; made in house; host or cells: Spodoptera frugiperda (SF9), baculovirus
Source text: S-adenosylmethionine (SAM), S-adenosylhomocysteine (SAH), bicine, KCl, Tween20, dimethylsulfoxide (DMSO), bovine skin gelatin (BSG), and Tris(2-carboxyethyl)phosphine hydrochloride solution (TCEP) were purchased from Sigma-Aldrich at the highest level of purity possible. ^3H-SAM was purchase from American Radiolabeled Chemicals with a specific activity of 80 Ci/mmol. 384-well streptavidin Flashplates were purchased from PerkinElmer.
Peptide representative of human histone H4 residues 1-15 was synthesized with a C-terminal linker-affinity tag motif and a C-terminal amide cap by 21st Century Biochemicals.
The amplified genes were sublconed into pENTR/D/TEV (Life Technologies) and subsequently transferred by Gateway™ attL×attR recombination to pDEST8 baculvirus expression vector (Life Technologies).
Protein over-expression was accomplished by infecting exponentially growing Spodoptera frugiperda (SF9) cell culture at 1.2×10^6 cell/ml with a 5000 fold dilution of BIIC stock. Infections were carried out at 27° C. for 72 hours, harvested by centrifugation, and stored at −80° C. for purification.
Flag-PRMT5/6His-MeP50 was eluted with 300 mM Imidazole in the same buffer.
General Procedure for PRMT5/MEP50 Enzyme Assays on Peptide Substrates.
The assays were all performed in a buffer consisting of 20 mM Bicine (pH=7.6), 1 mM TCEP, 0.005% BSG, and 0.002% Tween20, prepared on the day of use. […] DMSO (1 ul) was added to Columns 11, 12, 23, 24, rows A-H for the maximum signal control and 1 ul of SAH, a known product and inhibitor of PRMT5/MEP50, was added to columns 11, 12, 23, 24, rows I-P for the minimum signal control. A cocktail (40 ul) containing the PRMT5/MEP50 enzyme and the peptide was added by Multidrop Combi (Thermo-Fisher). The compounds were allowed to incubate with PRMT5/MEP50 for 30 min at 25 degrees Celsius, then a cocktail (10 ul) containing ^3H-SAM was added to initiate the reaction (final volume=51 ul). […] The assays were stopped by the addition of non-radioactive SAM (10 ul) to a final concentration of 600 uM, which dilutes the ^3H-SAM to a level where its incorporation into the peptide substrate is no longer detectable. 50 ul of the reaction in the 384-well polypropylene plate was then transferred to a 384-well Flashplate and the biotinylated peptides were allowed to bind to the streptavidin surface for at least 1 hour before being washed three times with 0.1% Tween20 in a Biotek ELx405 plate washer. The plates were then read in a PerkinElmer TopCount plate reader to measure the quantity of ^3H-labeled peptide bound to the Flashplate surface, measured as disintegrations per minute (dpm) or alternatively, referred to as counts per minute (cpm).
Where dpm=disintegrations per minute, cmpd=signal in assay well, and min and max are the respective minimum and maximum signal controls.
Where top and bottom are the normally allowed to float, but may be fixed at 100 or 0 respectively in a 3-parameter fit. The Hill Coefficient normally allowed to float but may also be fixed at 1 in a 3-parameter fit. Y is the % inhibition and X is the compound concentration.

T1 sequence (O14744 with tags, fused parts or gaps): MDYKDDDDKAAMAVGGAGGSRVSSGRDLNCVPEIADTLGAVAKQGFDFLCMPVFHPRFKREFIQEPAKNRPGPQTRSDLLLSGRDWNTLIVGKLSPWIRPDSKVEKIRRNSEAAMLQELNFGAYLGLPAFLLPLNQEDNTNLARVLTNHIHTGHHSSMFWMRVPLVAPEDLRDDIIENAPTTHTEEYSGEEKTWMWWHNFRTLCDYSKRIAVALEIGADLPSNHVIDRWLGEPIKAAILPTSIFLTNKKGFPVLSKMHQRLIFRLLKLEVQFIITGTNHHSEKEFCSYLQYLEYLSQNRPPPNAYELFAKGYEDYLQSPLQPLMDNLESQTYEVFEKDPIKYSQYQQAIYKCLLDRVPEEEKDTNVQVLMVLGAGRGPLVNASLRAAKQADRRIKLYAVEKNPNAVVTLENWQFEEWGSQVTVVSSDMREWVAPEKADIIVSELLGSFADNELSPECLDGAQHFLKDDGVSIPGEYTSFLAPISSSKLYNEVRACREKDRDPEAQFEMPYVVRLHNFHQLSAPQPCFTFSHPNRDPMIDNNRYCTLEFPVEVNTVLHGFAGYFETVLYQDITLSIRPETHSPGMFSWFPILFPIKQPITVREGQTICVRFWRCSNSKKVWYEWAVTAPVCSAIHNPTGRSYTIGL
T1 sequence (Q9BQA1 with tags, fused parts or gaps partner limits assumed): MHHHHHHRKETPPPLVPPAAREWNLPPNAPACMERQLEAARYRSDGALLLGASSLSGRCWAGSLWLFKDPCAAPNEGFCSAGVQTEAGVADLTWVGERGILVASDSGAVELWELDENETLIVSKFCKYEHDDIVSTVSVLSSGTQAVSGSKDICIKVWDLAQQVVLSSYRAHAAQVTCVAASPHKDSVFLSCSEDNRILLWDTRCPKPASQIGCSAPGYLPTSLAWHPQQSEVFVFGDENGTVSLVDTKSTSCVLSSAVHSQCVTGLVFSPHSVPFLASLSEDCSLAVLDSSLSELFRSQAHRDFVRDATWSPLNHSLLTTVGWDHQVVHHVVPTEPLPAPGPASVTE

Structure (SMILES)	IC50 [µM]
O=C(CC1NC(N2CCN(Cc3ccccc3)CC2)=NC1=O)Nc1ccccc1 (stereo not shown) [Compound 6-14]	10 to 50

same assay, conditions: PRMT5 biochemical assay; read-out: Biochemical IC50

Structure (SMILES)	IC50 [µM]
COc1cccc(CN(C)CCN(C)C[C@H]2O[C@@H](n3cnc4c(N)ncnc43)[C@H](O)[C@@H]2O)c1 [Compound 20-1]	0.101 to 1
CN(CCc1c[nH]cn1)CCN(C)C[C@H]1O[C@@H](n2cnc3c(N)ncnc32)[C@H](O)[C@@H]1O [Compound 47-1]	0.101 to 1
O=C(CC1NC(N2CCC(O)(c3ccccc3)CC2)=NC1=O)Nc1ccc(Cl)cc1 (stereo not shown) [Compound 73-14]	0.101 to 1
CCCN(CCN(C)C[C@H]1O[C@@H](n2cnc3c(N)ncnc32)[C@H](O)[C@@H]1O)CC1CC1 [Compound 42-1]	0.101 to 1
Cc1ccc(NC(=O)CC2NC(N3CCN(c4ccccc4)CC3)=NC2=O)cc1 (stereo not shown) [Compound 67-14]	1 to 10
COc1ccc(NC(=O)CC2NC(N3CCN(c4ccccc4)CC3)=NC2=O)cc1 (stereo not shown) [Compound 62-14]	1 to 10
CN1CC[C@@H](N(C)C[C@H]2O[C@@H](n3cnc4c(N)ncnc43)[C@H](O)[C@@H]2O)C1 [Compound 86-1]	0.101 to 1
CCC(COC)NCCN(C)C[C@H]1O[C@@H](n2cnc3c(N)ncnc32)[C@H](O)[C@@H]1O (stereo partly shown) [Compound 62-1]	0.101 to 1
Nc1ncnc2c1ncn2[C@@H]1O[C@H](CN2CCCN(c3ccccn3)CC2)[C@@H](O)[C@H]1O [Compound 84-1]	0.101 to 1
CC(=O)c1ccc(NC(=O)CC2NC(N3CCN(C)CC3)=NC2=O)cc1 (stereo not shown) [Compound 26-14]	10 to 50
COc1ccccc1NC(=O)CC1NC(N2CCN(c3ccccc3)CC2)=NC1=O (stereo not shown) [Compound 60-14]	10 to 50
O=C(CC1NC(N2CCN(c3ccccc3)CC2)=NC1=O)NC1CCCCC1 (stereo not shown) [Compound 52-14]	10 to 50
CN(CCCN)C[C@H]1O[C@@H](n2cnc3c(N)ncnc32)[C@H](O)[C@@H]1O [Compound 97-1]	< 0.1
CN(CCN1CCN(CCc2ccccc2)CC1)C[C@H]1O[C@@H](n2cnc3c(N)ncnc32)[C@H](O)[C@@H]1O [Compound 45-1]	0.101 to 1
COc1ccccc1C(=O)CC1NC(N2CC=C(c3ccccc3)CC2)=NC1=O (stereo not shown) [Compound 6-6]	0.101 to 1
NCCCN(CC[C@H](N)C(=O)O)C[C@H]1O[C@@H](n2cnc3c(N)ncnc32)[C@H](O)[C@@H]1O [Compound 23-1]	< 0.1
CCN(CCNCCc1ccc(Cl)cc1)C[C@H]1O[C@@H](n2cnc3c(N)ncnc32)[C@H](O)[C@@H]1O [Compound 82-1]	0.101 to 1
Nc1ncnc2c1ncn2[C@@H]1O[C@H](CSCC[C@H](N)CO)[C@@H](O)[C@H]1O [Compound 91-1, (2S, 3S, 4R, 5R)-2-((((S)-3-amino-4-hydroxybutyl)thio)methyl)-5-(6-amino-9H-purin-9-yl)tetrahydrofuran-3,4-diol]	< 0.1
Cc1ccc(C(=O)CC2NC(N(C)CCc3ccccc3)=NC2=O)cc1 (stereo not shown) [Compound 41-14]	1 to 10

Structure (SMILES)	IC50 [µM]
CN(CCNCc1ccccc1)C[C@H]1O[C@@H](n2cnc3c(N)ncnc32)[C@H](O)[C@@H]1O [Compound 12-1]	0.101 to 1
COc1ccccc1C(=O)CC1NC(N2CCC(c3ccccc3)CC2)=NC1=O (stereo not shown) [Compound 48-14]	0.101 to 1
O=C(CC1NC(N2CCN(c3ccccc3)CC2)=NC1=O)Nc1ccc2c(c1)OCO2 (stereo not shown) [Compound 65-14]	10 to 50
Cc1ccc(C(=O)CC2NC(N3CCN(c4ccc(F)cc4)CC3)=NC2=O)cc1 (stereo not shown) [Compound 32-14]	1 to 10
Cc1cnc(CN)n1Cc1ccccc1 [Compound 5-13]	1 to 10
CCCCOC(=O)c1ccc(NC(=O)NCCNC[C@H]2O[C@@H](n3cnc4c(N)ncnc43)[C@H](O)[C@@H]2O)cc1 [Compound 75-1]	< 0.1
CN(CCNCc1ccc(OC(F)F)cc1)C[C@H]1O[C@@H](n2cnc3c(N)ncnc32)[C@H](O)[C@@H]1O [Compound 1-1]	0.101 to 1
CN1CCN(C2=NC(=O)C(CC(=O)Nc3ccc(Cl)cc3)N2)CC1 (stereo not shown) [Compound 2-14]	1 to 10
CCCCNCCN(C)C[C@H]1O[C@@H](n2cnc3c(N)ncnc32)[C@H](O)[C@@H]1O [Compound 68-1]	< 0.1
Cc1ccc(C(=O)CC2NC(N3CCN(Cc4ccc(F)cc4)CC3)=NC2=O)cc1 (stereo not shown) [Compound 35-14]	1 to 10
Cc1ccccc1C(=O)CC1NC(N2CCN(c3ccccc3)CC2)=NC1=O (stereo not shown) [Compound 69-14]	0.101 to 1
Cc1ccc(C(=O)CC2NC(N3CCN(Cc4ccccc4)CC3)=NC2=O)cc1 (stereo not shown) [Compound 28-14]	1 to 10
CC(C)N(CCNCCc1ccc(Cl)cc1)C[C@H]1O[C@@H](n2cnc3c(N)ncnc32)[C@H](O)[C@@H]1O [Compound 77-1]	0.101 to 1
CN(CCNCCOc1ccccc1)C[C@H]1O[C@@H](n2cnc3c(N)ncnc32)[C@H](O)[C@@H]1O [Compound 63-1]	< 0.1
N=C(NC[C@H]1O[C@@H](n2cnc3c(N)ncnc32)[C@H](O)[C@@H]1O)c1ccccc1 [Compound 83-1]	0.101 to 1
COc1ccccc1C(O)CC1N=C(N2CCN(c3ccccc3)CC2)NC1=O (stereo not shown) [Compound 54-14]	10 to 50
COc1ccccc1C(=O)CC1NC(N2CCc3ccccc3C2)=NC1=O (stereo not shown) [Compound 5-6]	< 0.1
COc1ccc(N2CCN(C3=NC(=O)C(CC(=O)Nc4ccccc4)N3)CC2)cc1 (stereo not shown) [Compound 25-14]	10 to 50
CN(CCNCCc1ccccc1)C[C@H]1O[C@@H](n2cnc3c(N)ncnc32)[C@H](O)[C@@H]1O [Compound 79-1]	0.101 to 1

Structure (SMILES)	IC50 [µM]
CN(CCNCCc1c(Cl)cccc1Cl)C[C@H]1O[C@@H](n2cnc3c(N)ncnc32)[C@H](O)[C@@H]1O [Compound 72-1]	< 0.1
CC(C)c1ccc(NC(=O)CC2NC(N3CCN(c4ccccn4)CC3)=NC2=O)cc1 (stereo not shown) [Compound 16-14]	1 to 10
Cc1ccc(C(=O)CC2NC(N3CCN(c4cccnc4)CC3)=NC2=O)cc1 (stereo not shown) [Compound 43-14]	1 to 10
COc1ccccc1C(=O)CC1NC(N2CCC(O)(c3ccccc3)CC2)=NC1=O (stereo not shown) [Compound 55-14]	0.101 to 1
CN(CCN(CC[C@H](N)C(=O)OCc1ccccc1)C[C@H]1O[C@@H](n2cnc3c(N)ncnc32)[C@H](O)[C@@H]1O)C(=O)OCc1ccccc1 [Compound 49-1]	< 0.1
CCN1CCN(C2=NC(=O)C(CC(=O)Nc3ccc(C)cc3)N2)CC1 (stereo not shown) [Compound 5-14]	1 to 10
NCCCN(CCN)C[C@H]1O[C@@H](n2cnc3c(N)ncnc32)[C@H](O)[C@@H]1O [Compound 30-1]	< 0.1
CN(CCNCCc1c[nH]c2ccccc12)C[C@H]1O[C@@H](n2cnc3c(N)ncnc32)[C@H](O)[C@@H]1O [Compound 55-1]	< 0.1
O=C(CC1NC(N2CCN(c3ccccc3)CC2)=NC1=O)Nc1ccc(Cl)cc1Cl (stereo not shown) [Compound 58-14]	0.101 to 1
O=C(CC1NC(N2CCN(c3ccccc3)CC2)=NC1=O)Nc1ccccc1Cl (stereo not shown) [Compound 49-14]	10 to 50
O=C(CC1NC(N2CCc3ccccc3C2)=NC1=O)Nc1ccccc1 (stereo not shown) [Compound 13-14]	1 to 10
CN(CCNC1CCC(C(C)(C)C)CC1)C[C@H]1O[C@@H](n2cnc3c(N)ncnc32)[C@H](O)[C@@H]1O (stereo partly shown) [Compound 71-1]	0.101 to 1
CN1CCC(N(C)CCN(C)C[C@H]2O[C@@H](n3cnc4c(N)ncnc43)[C@H](O)[C@@H]2O)C1 (stereo partly shown) [Compound 39-1]	0.101 to 1
CC(N)CCN(C)C[C@H]1O[C@@H](n2cnc3c(N)ncnc32)[C@H](O)[C@@H]1O (stereo partly shown) [Compound 22-1]	0.101 to 1
Cc1ccc(C(=O)CC2NC(N3CCN(c4ccncc4)CC3)=NC2=O)cc1 (stereo not shown) [Compound 34-14]	10 to 50
Cc1cc(Cl)ccc1NC(=O)CC1NC(N2CCN(c3ccccc3)CC2)=NC1=O (stereo not shown) [Compound 66-14]	1 to 10
COc1ccc(N2CCN(C3=NC(=O)C(CC(=O)Nc4ccc(C(C)=O)cc4)N3)CC2)cc1 (stereo not shown) [Compound 21-14]	1 to 10
Cc1ccc(C(C)NCCN(C)C[C@H]2O[C@@H](n3cnc4c(N)ncnc43)[C@H](O)[C@@H]2O)cc1 (stereo partly shown) [Compound 3-1]	0.101 to 1
CN(CCN(C)C[C@H]1O[C@@H](n2cnc3c(N)ncnc32)[C@H](O)[C@@H]1O)Cc1ccccc1 [Compound 9-1]	0.101 to 1
